Source: PMC7059089, “Bioguided Isolation and Structure Identification of Acetylcholinesterase Enzyme Inhibitors from Drynariae Rhizome” (Journal of Analytical Methods in Chemistry, 2020)

molecular target: T1, AChE (acetylcholinesterase) (Electrophorus electricus, UniProt O42275); test: biochemical; conditions: UPLC-MS/MS assay, ACh-I substrate, 37°C, 25 min, pH 8.0, n = 6, ± SD; read-out: IC50 against AChE
T1 construct: obtained from the head of an electric eel; purchased Shanghai Source Biotech Co. Ltd. (Shanghai, China); host or cells: electric eel tissue (head)
Text: AChE (acetylcholinesterase, obtained from the head of an electric eel, 500 U), iodized acetylcholine (ACh-I, purity > 98.0%), iodized choline (Ch-I, purity > 98.0%), and Tris-HCl buffer (1 mol/L, pH 8.0) were all purchased from Shanghai Source Biotech Co. Ltd. (Shanghai, China). […] UPLC-grade acetonitrile was obtained from Fisher (Fair Lawn, NJ, USA). Water was purified by redistillation and a Milli-Q® ultrapure water system (Millipore, Bedford, MA, USA). Other chemicals and solvents used were of analytical grade.
AChE inhibition activities of the analytes were determined in vitro by monitoring the transformation from a substrate (ACh-I) to the product (Ch-I) catalyzed AChE, and Ch-I was quantified with UPLC-MS/MS to access the AChE activity. The reaction was conducted in a 100 μL mixture, consisting of 50 μL AChE solution (0.5 U/mL), 45 μL ACh-I solution (400 μg/mL), and 5 μL tested sample or blank Tris solution which were all dissolved in Tris buffer (pH 8.0). The mixture was incubated at 37°C in a thermostatic water bath for 25 min and then terminated by 500 μL acetonitrile at 0°C immediately. The terminal solution was centrifuged at 20,000g for 15 min, and the supernatant was used for UPLC-MS/MS analysis.
The […] inhibition was calculated as follows:(1) inhibition %=Cb−Cs/Cb∗100%. where Cb means the Ch-I concentration incubated without AChE inhibitor and Cs means the Ch-I concentration incubated with inhibitor. The inhibitory activities of the AChE inhibitors were assessed by the IC50 values of tested compounds. Galanthamine was selected as a positive control.
Liquid chromatography analysis was accomplished on an ACQUITY UPLC™ system (Waters Corp., Milford, MA, USA). The chromatographic separation was carried out using an ACQUITY UPLCTM BEH C18 column (2.1 × 50 mm, 1.7 μm) at 30°C. The isocratic elution mobile phase consisted of 0.5% acetic acid (A) and acetonitrile (B) (40 : 60) to guarantee the peak shape of Ch-I.
A Waters® Micromass® Quattro Premier™ XE triple-quadrupole tandem mass spectrometer equipped with an electrospray ionization interface (TQ-ESI) was used for mass spectrometric detection. The positive ESI source operation optimal parameters were capillary voltage 3.0 kV, extractor voltage 3.00 V, skimmer 25.0 V, fragmentor 35 V, octopole Rf peak 3000 v, source temperature 120°C, and desolvation temperature 300°C. Nitrogen was used as the desolvation gas and cone gas at a flow of 600 L/h and 50 L/h, respectively. Argon was used as the collision gas at a pressure of approximately 2.61 × 10^−3 mbar. A multiple reaction monitoring (MRM) mode was used to quantify Ch-I, and the fragments of 104.34 Th and 58.53 Th were selected as the parent ion and daughter ion to obtain accurate quantitation in the mixture containing herb extract. The MS scan rate spectrum was 5000 amu/s, dwell time 5 ms, and m/z range 0–300 Th. All data were acquired and analyzed by Mass Lynx™ NT 4.1 software with the Quan Lynx™ program (Waters, Milford, MA, USA).
The reaction procedure was conducted with reference to Liu's report; moreover, the enzyme constants, steady-state kinetics, reaction temperature, reaction time, substrate concentration, and AChE concentration were investigated and optimized to guarantee the utilization. […] The concentration of AChE in Liu's report was 3.470 U/mL.

T1 sequence (O42275 24-633): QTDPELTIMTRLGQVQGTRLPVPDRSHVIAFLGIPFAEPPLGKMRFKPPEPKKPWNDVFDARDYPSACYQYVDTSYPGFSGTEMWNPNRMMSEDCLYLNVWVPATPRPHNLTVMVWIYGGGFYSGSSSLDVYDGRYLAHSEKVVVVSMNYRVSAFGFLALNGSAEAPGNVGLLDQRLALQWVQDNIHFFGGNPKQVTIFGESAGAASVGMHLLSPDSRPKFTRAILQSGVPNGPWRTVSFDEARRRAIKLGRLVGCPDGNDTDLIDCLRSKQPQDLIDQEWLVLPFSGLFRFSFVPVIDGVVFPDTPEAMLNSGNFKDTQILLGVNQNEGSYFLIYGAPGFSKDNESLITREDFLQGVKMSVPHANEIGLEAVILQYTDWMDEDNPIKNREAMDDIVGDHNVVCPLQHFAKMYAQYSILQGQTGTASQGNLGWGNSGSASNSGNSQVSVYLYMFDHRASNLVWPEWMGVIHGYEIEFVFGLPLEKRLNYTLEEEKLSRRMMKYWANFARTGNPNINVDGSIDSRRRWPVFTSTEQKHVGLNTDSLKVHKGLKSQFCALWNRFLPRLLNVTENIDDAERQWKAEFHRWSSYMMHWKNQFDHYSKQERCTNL

SMILES	IC50
O=C1C[C@@H](c2ccc(O)cc2)Oc2cc(O)cc(O)c21 [Naringenin, naringenin]	3.81 ± 0.21 µM
O=c1c(O[C@@H]2O[C@H](CO)[C@@H](O)[C@H](O)[C@H]2O)c(-c2ccc(O)cc2)oc2cc(O)cc(O)c12 [Astragalin, astragalin]	18.2 ± 2.33 µM
O=c1cc(-c2ccc(O)c(O)c2)oc2cc(O[C@@H]3O[C@H](CO)[C@H](O)[C@H](O)[C@H]3O)cc(O)c12 [Luteolin-7-O-β-D-glucoside, luteolin-7-O-β-D-glucoside]	17.1 ± 1.02 µM
O=C1C[C@@H](c2ccc(O)c(O)c2)Oc2cc(O)cc(O)c21 [Eriodictyol, eriodictyol]	7.19 ± 0.62 µM
C[C@@H]1O[C@@H](O[C@H]2[C@H](Oc3cc(O)c4c(c3)O[C@H](c3ccc(O)c(O)c3)CC4=O)O[C@H](CO)[C@@H](O)[C@@H]2O)[C@H](O)[C@H](O)[C@H]1O [Neoeriocitrin, neoeriocitrin]	22.5 ± 1.25 µM
O=c1cc(-c2ccc(O)c(O)c2)oc2cc(O)cc(O)c12 [Luteolin, luteolin]	17.3 ± 0.23 µM
C[C@@H]1O[C@@H](O[C@H]2[C@H](Oc3cc(O)c4c(c3)O[C@H](c3ccc(O)cc3)CC4=O)O[C@H](CO)[C@@H](O)[C@@H]2O)[C@H](O)[C@H](O)[C@H]1O [Naringin, naringin]	26.4 ± 1.17 µM
